Where two headings read alike, the source gives them in different places.

The target in one series is T1, human Kv4.3 (Homo sapiens, UniProt Q9UK17).
T1 construct: expressed in transfected cells; host or cells: transgenic C. elegans strain UG1755 (N2 injected with plasmid pGV8, integrated array)
T1 sequence (Q9UK17 1-655): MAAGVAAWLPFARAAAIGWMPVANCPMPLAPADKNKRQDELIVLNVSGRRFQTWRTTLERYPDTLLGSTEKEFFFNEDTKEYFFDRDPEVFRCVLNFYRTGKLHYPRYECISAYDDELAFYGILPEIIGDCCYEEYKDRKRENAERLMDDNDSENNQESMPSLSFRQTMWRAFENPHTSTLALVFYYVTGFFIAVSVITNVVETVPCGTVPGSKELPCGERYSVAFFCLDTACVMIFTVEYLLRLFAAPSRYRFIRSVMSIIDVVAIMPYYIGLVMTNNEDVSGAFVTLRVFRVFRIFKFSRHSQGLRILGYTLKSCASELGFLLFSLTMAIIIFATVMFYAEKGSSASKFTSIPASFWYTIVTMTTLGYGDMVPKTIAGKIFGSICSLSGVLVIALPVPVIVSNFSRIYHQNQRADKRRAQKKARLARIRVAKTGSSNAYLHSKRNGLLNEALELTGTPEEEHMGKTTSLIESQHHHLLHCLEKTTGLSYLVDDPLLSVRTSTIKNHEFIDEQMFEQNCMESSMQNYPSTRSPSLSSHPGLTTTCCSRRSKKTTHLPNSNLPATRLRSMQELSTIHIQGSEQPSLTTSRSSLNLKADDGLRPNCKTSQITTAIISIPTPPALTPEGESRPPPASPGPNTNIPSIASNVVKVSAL
Briefly: C. elegans based high-throughput screen for Kv4.3 modulators (pharynx pumping, Calcein AM uptake), transgenic strain UG1755. It counts as in vivo. The following applies: for Ratio N2/Kv4.3: EC50 on N2 divided by EC50 on the Kv4.3 expressing strain, cut-off 1.8; for EC50: transgenic strain UG1755 expressing human Kv4.3, read-out: EC50 (μM) Kv4.3 worm. An excerpt: A C. elegans based high-throughput screen for Kv4.3 modulators has been used to establish an in vivo SAR (structure-activity relationships: the effect of chemical structure on biological activity) on Kv4.3 for the compounds according to the present invention.
This assay has employed a stable transgenic C. elegans strain that functionally expressed human Kv4.3 in the pharynx and a visible selection GFP maker in body-wall muscle.
The pharynx is the feeding organ of C. elegans and contracts rhythmically 3-4 times per second. The pharynx contraction is controlled by the nervous system via action potentials similar to the human myocyte and can thus be used to study human ion channel physiology in vivo in C. elegans.
Introducing the human Kv4.3 channel into the C. elegans pharynx influences the C. elegans action potential in a characteristic fashion. The additional number of potassium channels increases potassium ion efflux, enhances re-polarization and thereby shortens the action potential duration. […] The shortened action potentials of the C. elegans pharynx resulting from expression of human Kv4.3, changes the pharynx contraction-relaxation cycle and consequently reduces the pumping/feeding in these transgenic animals. This change of pumping is an end-point amenable to high-throughput screening technology. The pumping end-point can be technically translated into a high-throughput read-out by the use of a pro-fluorescent dye. The pro-fluorescent dye is taken up by C. elegans depending on its pumping activity and converted into a fluorescent dye by enzymes located in its intestines. After a defined incubation period, the change of fluorescence intensity in the intestine can be measured with a plate reader.
(§1) The screening of the compounds according to the present invention has been performed in the C. elegans based high-throughput screen for Kv4.3 modulators described above. The method for testing the activity on human Kv4.3 of the compounds according to the invention with C. elegans strains expressing human Kv4.3 for their activity is the same as the method described in WO 03/097682. The method for testing the compounds on wild-type C. elegans strains not expressing human Kv4.3 is the same as the method described in WO 00/63427. Briefly, UG1755 animals have been grown in large numbers and staged young adults (no or only few eggs inside the uterus) have been harvested on the day of screening. Approximately 125 animals in 80 μl buffer have been dispensed per well of a “U shaped 96-well compound plate The compound plate contained already compound material at a final concentration of 30 μM in 0.3% DMSO. After one hour incubation 10 μl of the fluorescent label Calcein AM (CAM) have been added to achieve a final concentration of 5 μM CAM and 0.8% DMSO. After another four hours of incubation at 20° C., the drinking of C. elegans animals (or the “reaction 8 measured by the uptake of CAM) has been stopped by adding 10 μl of a 60 μM ivermectin solution. The fluorescence intensity (counts per second) has been measured 40 minutes after adding ivermectin with the Wallac plate reader at a wavelength of 535 nm (after excitation at 485 nm).
The active compounds have been identified and confirmed by dose-response analysis. An EC50 has been calculated and the results are listed under Table 3. Dose-response curves have been obtained at concentrations of 30 μM. EC50 has been calculated using XLfit 2.09 software package.

The subject of series [1] is C. elegans wild-type strain N2. Briefly: Same C. elegans pumping assay format using wild-type strain N2. It counts as in vivo. The following applies: Caenorhabditis elegans, read-out: EC50 (μM) Wild type worm N2.
Source text: as §1
These compounds have been also tested in the same assay format using a C. elegans wild-type strain N2 and the corresponding EC50 has been calculated. The ratio of the EC50s obtained for a compound on the two strains (transgenic expressing human Kv4.3 and wild-type) gives an indication on whether said compound is acting on human Kv4.3. […]

The target in series [2] is T2, human Kv4.3/KChIP2.2 potassium channel (Homo sapiens, UniProt Q9UK17).
T2 construct: expressed in transfected cells
T2 sequence (Q9UK17 1-655): T1 sequence (Q9UK17 1-655)
Briefly: Whole cell patch clamp, CHO-K1 cells stably expressing human Kv4.3/KChIP2.2. The following applies: CHO-K1. Type of series: cell-based. Here is the method: For this experiment, a recombinant CHO-K1 cell line stably expressing the human Kv4.3/KChIP2.2 potassium channel was used. The cells used for this experiment were kept in continuous culture under standard conditions (37° C., air supplemented with 7% CO2). The CHO-K1 Kv4.3/KChIP2.2 cells were kept in Iscove s modified DMEM (Dulbecco's Modified Eagle's Medium) medium (IMEM) supplemented with 100 U/ml Penicillin, 100 μg/ml Streptomycin, 7% fetal calf serum (FCS), 2.5 μg/ml amphotericin, 400 μg/ml G418, and 400 μg/ml Zeocin™. Cells were passed every 3-4 days after detachment using a Trypsin solution. The quality of the cultured cells was guaranteed by vitality and contamination tests. The culture of the cells was performed as described in protocol D hereunder.
10 mM stock solutions of the compounds were prepared in DMSO. Solutions of the compounds were prepared by dilution of stock solution in bath solution. If the required stock solution volume was theoretically below 1 μl, bath solutions with higher compound concentration were used for dilution. The maximal DMSO concentration during experiments was 0.1% (v/v).
Activity of the human Kv4.3/KChIP2.2 channel was investigated using the patch clamp technique in its whole cell mode. This means that the current needed for clamping the whole cell expressing the K^+-channel protein to a specific potential was measured. Experiments were performed using a patch clamp set-up. Technical equipment needed for manipulation of the cells was placed on a vibration-isolated table and shielded with a Faraday cage to minimize electrical noise. The amplifier and control system were placed in a rack outside the Faraday cage. The system consisted of an EPC9 or EPC10 patch clamp amplifier (HEKA, Lambrecht, Germany), and the perfusion system DADVC8 (ALA Scientific, New York, USA) controlled by the Pulse software package (HEKA, Lambrecht, Germany) installed on a personal computer. The pipettes used for patch clamping were made of borosilicate glass.
Measurements were performed at room temperature (20-25° C.). In each experiment (i.e. each cell) only one concentration of the compounds was investigated no cumulative dosages were performed. Each cell acted as its own control. […]
Between voltage pulses the cell was clamped to a holding potential of −80 mV (inside). The test protocols are illustrated in FIG. 1 and Table 4. The test protocol illustrated in FIG. 1a was used to characterize the properties of the Kv4.3/KChIP2.2 channel and to check the quality of the individual patch clamp experiment (voltage control). […] Each test protocol consisted of 4 segments.
After the whole cell configuration was established a current-voltage curve (IV activation 1; FIG. 1a and Table 4a) was recorded under constant superfusion with bath solution to check for Kv4.3/KChIP2.2 expression and the quality of the individual patch clamp experiment (voltage control). Subsequently, 14 test pulses (series 1; FIG. 1b and Table 4b) were applied at 0.1 Hz under constant superfusion with bath solution. The protocol was initiated by a voltage jump to 100 mV (400 ms) to achieve full inactivation. Then the Kv4.3/KChIP2.2 channels were transferred to the open state by depolarization to +40 mV for 300 milliseconds (activation). Only cells generating current amplitudes between 1 nA and 50 nA were used for the experimental procedure. No or negligible rundown was observed.
Then, 36 test pulses (series 2) were applied at 0.1 Hz under constant superfusion with the compound dissolved in bath solution. Finally, another current-voltage curve was recorded in the presence of the compounds (IV activation 2).
Three different types of analysis were used: Inhibition at the peak current, inhibition of translocated charge and inhibition 75 ms after activation at +40 mV (sustained current). The peak current/charge/current at 75 ms was determined using the online analysis tool of the HEKA pulse software package. […]
In general terms: Patch clamp records ionic current or voltage across a cell membrane.

The mark [3] stands for this setting: remaining current measured after application of the compound and relative to the blank, read-out: Kv4.3 charge in %.
The mark [4] stands for this setting: remaining peak height measured after application of the compound and relative to the blank, read-out: Kv4.3 peak in %.

For orientation: EC50 means the concentration at which the effect is half-maximal. Take `Cc1nc(Nc2ccc(F)cc2)sc1C(=O)N[C@@H](C)c1ccc2ccccc2c1` [Compound 15, 2-(4-fluoro-phenylamino)-4-methyl-thiazole-5-carboxylic acid (S)-1-(naphthalen-2-yl)ethyl amide]: at human Kv4.3, the “Ratio N2/Kv4.3” value was 2.4 and the EC50 is 10.1 µM. The EC50 in series [1] turned out to be 24 µM.

For the compound `Cc1nc(Nc2ccc(Br)cc2)sc1C(=O)N[C@H](C)c1ccc([N+](=O)[O-])cc1` [Compound 22, 2-(4-bromo-phenylamino)-4-methyl-thiazole-5-carboxylic acid (R)-1-(4-nitrophenyl)ethyl amide], on human Kv4.3, the “Ratio N2/Kv4.3” value is recorded as above 2.6 and the EC50 was 11.7 µM. Further, the EC50 in series [1] was above 30 µM.

For the compound `Cc1nc(Nc2ccc(Br)cc2)sc1C(=O)NCc1cc(C(F)(F)F)cc(C(F)(F)F)c1` [Compound 24, 2-(4-bromo-phenylamino)-4-methyl-thiazole-5-carboxylic acid 3,5-bis-trifluoromethyl-benzylamide], at human Kv4.3, the “Ratio N2/Kv4.3” value is reported as above 1.7 and the EC50 is 17.1 µM. In addition, the EC50 in series [1] was above 30 µM.

Consider `C[C@@H](NC(=O)c1csc(Nc2ccc(F)cc2)n1)c1ccc([N+](=O)[O-])cc1` [Compound 36, 2-(4-fluoro-phenylamino)-thiazole-4-carboxylic acid (R)-1-(4-nitro-phenyl)ethyl amide], for which, on human Kv4.3, the “Ratio N2/Kv4.3” value is 2.0 and the EC50 is 22.7 µM. Besides, the EC50 in series [1] worked out at 45 µM.

Regarding `O=C(N[C@@H]1CCC[C@H]1OCc1ccccc1)c1csc(Nc2ccc(F)cc2)n1` [Compound 37, 2-(4-fluoro-phenylamino)-thiazole-4-carboxylic acid (1R,2R)-2-(benzyloxycyclopent-1-yl) amide], at human Kv4.3, the “Ratio N2/Kv4.3” value is 3.8 and the EC50 was 6 µM. In series [1], the EC50 worked out at 23 µM.

With `O=C(N[C@@H]1CCCC[C@H]1OCc1ccccc1)c1csc(Nc2ccc(F)cc2)n1` [Compound 38, 2-(4-fluoro-phenylamino)-thiazole-4-carboxylic acid (1R,2R)-2-(benzyloxycyclohex-1-yl) amide], at human Kv4.3, the “Ratio N2/Kv4.3” value is 2.5 and the EC50 is 17.3 µM. Moreover, the EC50 in series [1] came out at 44 µM.

The melting point is the temperature of the solid-liquid transition. As to `COc1ccccc1Nc1nc(C)c(C(=O)NCc2ccc(-c3csnn3)cc2)s1` [Compound 161, 2-(2-methoxy-phenylamino)-4-methyl-thiazole-5-carboxylic acid 4-[1,2,3]thiadiazol-4-yl-benzylamide], the melting point lay within 191.6 to 194.5 °C. For the same compound, the remaining activity at 1 µM in series [2] (setting [3]) is 75%. Besides, the remaining activity at 1 µM in series [2] (setting [4]) worked out at 89%.

The compound `COc1ccccc1Nc1nc(C)c(C(=O)N2CCC(c3ccccc3OC)CC2)s1` [Compound 165, [2-(2-methoxy-phenylamino)-4-methyl-thiazol-5-yl]-[4-(2-methoxy-phenyl)-piperidin-1-yl]-methanone] gave a melting point of 134.5 to 139 °C. For the same compound, in series [2] (setting [3]), the remaining activity at 1 µM stood at 80%. Further, the remaining activity at 1 µM in series [2] (setting [4]) was determined as 100%.

Compound `COc1ccccc1Nc1nc(C)c(C(=O)N2CCC(n3c(=O)[nH]c4ccccc43)CC2)s1` [Compound 170, 1-{1-[2-(2-methoxy-phenylamino)-4-methyl-thiazole-5-carbonyl]-piperidin-4-yl}-1,3-dihydro-benzoimidazol-2-one] returned a melting point above 250 °C. Moreover, the remaining activity at 1 µM in series [2] (setting [3]) was determined as 90%. The remaining activity at 1 µM in series [2] (setting [4]) amounted to 97%.

`Cc1nc(NCc2ccccc2)sc1C(=O)N[C@H]1CCC[C@@H]1OCc1ccccc1` [Compound 211, 2-benzylamino-4-methyl-thiazole-5-carboxylic acid ((1S,2S)-2-benzyloxycyclopent-1-yl) amide] registered a melting point of 185.1 to 185.8 °C. In addition, the remaining activity at 1 µM in series [2] (setting [3]) was found to be 86%. Moreover, the remaining activity at 1 µM in series [2] (setting [4]) is 98%.
